{
  "source": "patent US20090299034A1",
  "about": "“Collagen-related peptides” (priority 2007, published 2009)",
  "key": {"washed platelets [1]": {"system": "washed platelets", "assay": "Inhibition of platelet aggregation induced by collagen or CRP trimer SEQ ID 145", "type": "cell-based, human", "settings": "GPIIb/IIIa antagonist at 10, 100 and 1000 nM, 5 min pre-incubation"}, "washed platelets [2]": {"system": "washed platelets", "assay": "Human platelet aggregation assay", "type": "cell-based", "settings": "for EC50 ± SEM platelet aggregation: Table 3", "procedure": "Human platelet-rich plasma (PRP) concentrate from healthy volunteers was purchased from Biological Specialties, Inc. (Colmar, Pa.). […] The PRP was centrifuged at 730 g for 15 min. The resulting platelet pellet was washed twice in CGS buffer (13 mM sodium citrate, 30 mM glucose, 120 mM NaCl, pH 6.5) containing 1 U/mL apyrase (grade V, Sigma-Aldrich) and resuspended in Tyrode's buffer (140 mM NaCl, 2.7 mM KCl, 12 mM NaHCO3, 0.76 mM Na2HPO4, 5.5 mM dextrose, 5.0 mM Hepes, 0.2% BSA, pH 7.4). The “washed” platelets were diluted to 3×10^8 platelets/mL and kept >45 min at 37° C. before use.\nFor the assay, 105 μL of washed platelets, 2 mM CaCl2 and […] of fibrinogen were added to a 96-well microtiter plate. Platelet aggregation was initiated by the addition of serial concentrations of native collagen fibrils (equine type I; 92% identity with human collagen sequence; Chrono-log Corp., Havertown, Pa.) or test peptides. Buffer was added to one set of control wells. The assay plate was stirred constantly and intermittently placed in a microplate reader (Softmax, Molecular Devices, Menlo Park, Calif.) to read optical density (650 nm) at 0 and 5 min after the addition of the compound solutions. Aggregation was calculated as the decrease in optical density between the time-0 and 5-min measurements and expressed as percent of aggregation.\nPeptides were dissolved in PBS (pH 7) or water (final pH 5) to a concentration of 2 mg/mL. Some samples were heated in a water bath (70° C.) for 10 min, filtered through a 0.45-μm filter and incubated for 24 h or 7 days at 4° C. […] (H+F) and re-annealed at 4° C."}},
  "data": [
    {"compound": "O=C(O)C[C@H](NC(=O)[C@@H]1CCCN(C(=O)CCC2CCNCC2)C1)c1cccnc1", "note": "[elarofiban]", "values": [
      {"measurement": "inhibition of platelet aggregation induced by CRP trimer having SEQ ID 145", "setting": "washed platelets [1]", "value": "dose-dependent inhibition"},
      {"measurement": "inhibition of platelet aggregation induced by collagen", "setting": "washed platelets [1]", "value": "dose-dependent inhibition"}
    ]},
    {"compound": "(Pro-Xaa-Gly)10 [SEQ ID 154]", "values": [
      {"measurement": "induction of platelet aggregation", "setting": "washed platelets [2]; Example 4", "value": "failed to aggregate platelets"},
      {"measurement": "stimulation of platelet aggregation", "setting": "washed platelets [2]; Example 6, FIG. 1", "value": "not effective"},
      {"measurement": "EC50 ± SEM platelet aggregation", "setting": "washed platelets [2]; PBS, H + F, pH 7, incubation 24 h", "value": "Not Active"}
    ]},
    {"compound": "Collagen", "values": [
      {"measurement": "EC50 values (±SEM) platelet aggregation", "setting": "washed platelets [2]; Example 6, FIG. 1, Table 4", "value": "0.56 ± 0.09", "unit": "µg/mL"},
      {"measurement": "EC50 ± SEM platelet aggregation", "setting": "washed platelets [2]; native collagen fibrils, no peptide preparation", "value": 0.25, "unit": "µg/mL"}
    ]}
  ]
}
